Test [1] relates to GDF8 signaling (GDF pSMAD, MPC11). Kind of test: AlphaScreen SureFire SMAD3 (p-Ser423/425) assay, inhibition of GDF8 signaling. The test is classed as cell-based. To be noted: Mus musculus, MPC-11, p-SMAD-3 (Ser423/425) in cell lysate after GDF8 stimulation.
Test [2] deals with TGF-β signaling (TGF-β pSMAD, MPC-11). The test can be described thus: AlphaScreen SureFire SMAD3 (p-Ser423/425) assay, inhibition of TGF-β signaling. The test is classed as cell-based. To be noted: Mus musculus, p-SMAD-3 (Ser423/425) in cell lysate after TGF-β stimulation. Summed up:
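Cells in collagen-coated plates were pretreated about 10 minutes with three-fold DMSO serial dilutions of compound, then stimulated with TGF-β. They were lysed with about 25 μL 1× Lysis Buffer. Lysates in 384-well plates were incubated protected from light with Acceptor bead mix for 2 hours and Donor bead mix for 1½ hours. p-SMAD-3 (Ser423/425) was read on Synergy-4 or Enspire using AlphaScreen pSMAD3 settings.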

In the case of `Fc1ccc(F)c(-c2nn3c(c2-c2ccc4nccnc4c2)CCC3)c1` [Compound 197, 6-(2-(2,5-Difluorophenyl)-5,6-dihydro-4H-pyrrolo[1,2-b]pyrazol-3-yl)quinoxaline], the IC50 in test [1] is 59 nM; in test [2], 608 nM.

Regarding `Fc1ccc(-c2nn3c(c2-c2ccc4nccnc4c2)OCC3)cc1` [Compound 70, 6-(4-Fluorophenyl)-7-(quinoxalin-6-yl)-2,3-dihydropyrazolo[5,1-b]oxazole], the IC50 in test [1] worked out at 399 nM; in test [2], 1370 nM.

For `COc1cnc2ccc(-c3c(-c4cc(F)ccc4F)nn4c3CCC4)cc2n1` [Compound 199, 7-(2-(2,5-difluorophenyl)-5,6-dihydro-4H-pyrrolo[1,2-b]pyrazol-3-yl)-2-methoxyquinoxaline], the values for the IC50 in test [1] and in test [2] were 428 nM and 1370 nM, respectively.

With `COc1cccc(-c2nn3c(c2-c2ccc4nccnc4c2)OCC3)c1` [Compound 76, 6-(3-Methoxyphenyl)-7-(quinoxalin-6-yl)-2,3-dihydropyrazolo[5,1-b]oxazole], the figures for the 50% inhibitory concentration (IC50) in test [1] and in test [2] were 180 nM and 649 nM, respectively.

Regarding `FC(F)(F)c1cccc(-c2nn3c(c2-c2ccc4ncsc4c2)CCC3)c1` [Compound 35, 6-(2-(3-Trifluoromethylphenyl)-5,6-dihydro-4H-pyrrolo[1,2-b]pyrazol-3-yl)benzo[d]thiazole], the IC50 in test [1] is 97.9 nM; in test [2], 350 nM.

On to `Fc1ccc(-c2nn3c(c2-c2ccc4nccn4c2)OCC3)cc1` [Compound 67, 6-(4-Fluorophenyl)-7-(imidazo[1,2-a]pyridin-6-yl)-2,3-dihydropyrazolo[5,1-b]oxazole], for which the IC50 in test [1] came to 331 nM; in test [2] it was 2640 nM.

For `Clc1cccc(-c2nn3c(c2-c2ccc4ncnn4c2)CCC3)c1` [Compound 107, 6-(2-(3-Chlorophenyl)-5,6-dihydro-4H-pyrrolo[1,2-b]pyrazol-3-yl)-[1,2,4]triazolo[1,5-a]pyridine], the values for the IC50 in test [1] and in test [2] were 34.7 nM and 152 nM, respectively.

Consider `COc1c(F)ccc(-c2nn3c(c2-c2ccc4ncnn4c2)CCC3)c1F` [Compound 163, 6-(2-(2,4-Difluoro-3-methoxyphenyl)-5,6-dihydro-4H-pyrrolo[1,2-b]pyrazol-3-yl)-[1,2,4]triazolo[1,5-a]pyridine], for which the IC50 in test [1] was 430 nM; in test [2], 1340 nM.

On to `Fc1c(Cl)cccc1-c1nn2c(c1-c1ccc3nccn3c1)CCC2` [Compound 139, 6-(2-(3-Chloro-2-fluorophenyl)-5,6-dihydro-4H-pyrrolo[1,2-b]pyrazol-3-yl)imidazo[1,2-a]pyridine], for which the figures for the concentration for half-maximal inhibition (IC50) in test [1] and in test [2] were 359 nM and 874 nM, respectively.

Turning to `Fc1cc(F)c(-c2nn3c(c2-c2ccc4ncccc4c2)CCC3)cc1Cl` [Compound 190, 6-(2-(5-Chloro-2,4-difluorophenyl)-5,6-dihydro-4H-pyrrolo[1,2-b]pyrazol-3-yl)quinoline], the IC50 was found to be 272 nM in test [1] and 872 nM in test [2].

Turning to `Clc1cccc(-c2nn3c(c2-c2ccc4cn[nH]c4c2)CCC3)c1` [Compound 23, 6-(2-(3-Chlorophenyl)-5,6-dihydro-4H-pyrrolo[1,2-b]pyrazol-3-yl)-1H-indazole], the results for the IC50 in test [1] and in test [2] were 122 nM and 240 nM, respectively.

Turning to `Cc1cccc(-c2nn3c(c2-c2ccc4ncccc4c2)OCC3)c1` [Compound 51, 7-(Quinolin-6-yl)-6-(m-tolyl)-2,3-dihydropyrazolo[5,1-b]oxazole], the IC50 in test [1] was determined as 373 nM; in test [2], 2950 nM.

In the case of `Fc1ccc(-c2nn3c(c2-c2ccc4ncsc4c2)CCC3)cc1Cl` [Compound 145, 6-(2-(3-Chloro-4-fluorophenyl)-5,6-dihydro-4H-pyrrolo[1,2-b]pyrazol-3-yl)benzo[d]thiazole], the IC50 in test [1] worked out at 194 nM; in test [2], 572 nM.

`Fc1ccc(-c2nn3c(c2-c2ccc4nccn4c2)CCC3)cc1F` [Compound 86, 6-(2-(3,4-Difluorophenyl)-5,6-dihydro-4H-pyrrolo[1,2-b]pyrazol-3-yl)imidazo[1,2-a]pyridine]: the IC50 in test [1] is 272 nM; in test [2] it was 926 nM.

Consider `FC(F)(F)c1cccc(-c2nn3c(c2-c2ccc4ncccc4c2)OCC3)c1` [Compound 63, 7-(Quinolin-6-yl)-6-(3-trifluoromethylphenyl)-2,3-dihydropyrazolo[5,1-b]oxazole], for which the IC50 in test [1] came out at 1990 nM; in test [2], 6030 nM.

Take `Fc1ccc(-c2nn3c(c2-c2ccc4ncnn4c2)CCC3)cc1F` [Compound 110, 6-(2-(3,4-Difluorophenyl)-5,6-dihydro-4H-pyrrolo[1,2-b]pyrazol-3-yl)-[1,2,4]triazolo[1,5-a]pyridine]: the 50% inhibitory concentration (IC50) in test [1] was 126 nM; in test [2], 584 nM.

Take `Fc1ccc(-c2nn3c(c2-c2ccc4nccn4c2)CCC3)cc1` [Compound 19, 6-(2-(4-Fluorophenyl)-5,6-dihydro-4H-pyrrolo[1,2-b]pyrazol-3-yl)imidazo[1,2-a]pyridine]: the IC50 came to 309 nM in test [1] and 1770 nM in test [2].

`FC(F)(F)Oc1cccc(-c2nn3c(c2-c2ccc4sncc4c2)CCC3)c1` [Compound 128, 5-(2-(3-Trifluoromethoxyphenyl)-5,6-dihydro-4H-pyrrolo[1,2-b]pyrazol-3-yl)benzo[d]isothiazole]: the IC50 in test [1] is 439 nM; in test [2] it was 677 nM.

`Cc1cc(-c2nn3c(c2-c2ccc4c(cnn4C)c2)CCC3)ccc1F` [Compound 15, 5-(2-(4-Fluoro-3-methylphenyl)-5,6-dihydro-4H-pyrrolo[1,2-b]pyrazol-3-yl)-1-methyl-1H-indazole]: the IC50 in test [1] stood at 987 nM; in test [2] it was 2740 nM.

On to `FC(F)(F)c1cccc(-c2nn3c(c2-c2ccc4[nH]ncc4c2)CCC3)c1` [Compound 31, 5-(2-(3-Trifluoromethylphenyl)-5,6-dihydro-4H-pyrrolo[1,2-b]pyrazol-3-yl)-1H-indazole], for which the IC50 was determined as 51 nM in test [1] and 171 nM in test [2].

Turning to `Fc1ccc(-c2nn3c(c2-c2ccc4cn[nH]c4c2)CCC3)c(F)c1Cl` [Compound 156, 6-(2-(3-Chloro-2,4-difluorophenyl)-5,6-dihydro-4H-pyrrolo[1,2-b]pyrazol-3-yl)-1H-indazole], the IC50 in test [1] amounted to 440 nM; in test [2] it was 2840 nM.

`Fc1ccc(-c2nn3c(c2-c2ccc4ncsc4c2)CCC3)c(F)c1F` [Compound 131, 6-(2-(2,3,4-Trifluorophenyl)-5,6-dihydro-4H-pyrrolo[1,2-b]pyrazol-3-yl)benzo[d]thiazole]: the IC50 came out at 286 nM in test [1] and 946 nM in test [2].

As to `FC(F)(F)Oc1cccc(-c2nn3c(c2-c2ccc4nccn4c2)CCC3)c1` [Compound 124, 6-(2-(3-Trifluoromethoxyphenyl)-5,6-dihydro-4H-pyrrolo[1,2-b]pyrazol-3-yl)imidazo[1,2-a]pyridine], the IC50 in test [1] amounted to 53.7 nM; in test [2] it was 45.9 nM.

For `Fc1ccc(-c2nn3c(c2-c2ccc4ncccc4c2)CCC3)c(F)c1` [Compound 95, 6-(2-(2,4-Difluorophenyl)-5,6-dihydro-4H-pyrrolo[1,2-b]pyrazol-3-yl)quinoline], the values for the half-maximal inhibitory concentration (IC50) in test [1] and in test [2] were 559 nM and 3740 nM, respectively.

Regarding `Fc1ccc(-c2nn3c(c2-c2ccc4nccn4c2)CCC3)c(F)c1Cl` [Compound 157, 6-(2-(3-Chloro-2,4-difluorophenyl)-5,6-dihydro-4H-pyrrolo[1,2-b]pyrazol-3-yl)imidazo[1,2-a]pyridine], the half-maximal inhibitory concentration (IC50) was determined as 133 nM in test [1] and 685 nM in test [2].

`Fc1ccc(F)c(-c2nn3c(c2-c2ccc4ncsc4c2)CCC3)c1` [Compound 195, 6-(2-(2,5-Difluorophenyl)-5,6-dihydro-4H-pyrrolo[1,2-b]pyrazol-3-yl)benzo[d]thiazole]: the results for the IC50 in test [1] and in test [2] were 78.7 nM and 376 nM, respectively.

Take `COc1ccc(F)c(-c2nn3c(c2-c2ccc4nccn4c2)CCC3)c1` [Compound 164, 6-(2-(2-Fluoro-5-methoxyphenyl)-5,6-dihydro-4H-pyrrolo[1,2-b]pyrazol-3-yl)imidazo[1,2-a]pyridine]: the IC50 in test [1] is 570 nM; in test [2], 1310 nM.

Turning to `COc1cccc(-c2nn3c(c2-c2ccc4nccn4c2)CCC3)c1` [Compound 21, 6-(2-(3-Methoxyphenyl)-5,6-dihydro-4H-pyrrolo[1,2-b]pyrazol-3-yl)imidazo[1,2-a]pyridine], the IC50 in test [1] amounted to 310 nM; in test [2], 1040 nM.

Consider `Clc1cccc(-c2nn3c(c2-c2ccc4[nH]ncc4c2)CCC3)c1` [Compound 22, 5-(2-(3-Chlorophenyl)-5,6-dihydro-4H-pyrrolo[1,2-b]pyrazol-3-yl)-1H-indazole], for which the IC50 stood at 92.5 nM in test [1] and 183 nM in test [2].

`Cc1cc(-c2nn3c(c2-c2ccnc4[nH]ccc24)CCC3)ccc1F` [Compound 4, 4-(2-(4-Fluoro-3-methylphenyl)-5,6-dihydro-4H-pyrrolo[1,2-b]pyrazol-3-yl)-1H-pyrrolo[2,3-b]pyridine]: the IC50 in test [1] turned out to be 604 nM; in test [2], 1050 nM.

Values taken from US10822337B2, “TGF-β inhibitorC” (Rigel Pharmaceuticals, Inc., priority 2015, dated 2020).
